pIC50: −log10 of the molar value.
Molecular target: T1, Human Factor XIIa (hFXIIa) (Homo sapiens, UniProt P00748)
T1 construct: purchased Enzyme Research Laboratories
T1 sequence (P00748 373-615 limits assumed): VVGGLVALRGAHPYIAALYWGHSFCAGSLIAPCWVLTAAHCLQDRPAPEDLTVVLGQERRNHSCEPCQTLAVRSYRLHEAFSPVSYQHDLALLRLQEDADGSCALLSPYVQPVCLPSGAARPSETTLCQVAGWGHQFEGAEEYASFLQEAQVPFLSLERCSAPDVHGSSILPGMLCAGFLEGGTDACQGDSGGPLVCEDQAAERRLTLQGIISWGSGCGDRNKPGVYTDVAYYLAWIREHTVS
T1 sequence (P00748 20-372 partner limits assumed): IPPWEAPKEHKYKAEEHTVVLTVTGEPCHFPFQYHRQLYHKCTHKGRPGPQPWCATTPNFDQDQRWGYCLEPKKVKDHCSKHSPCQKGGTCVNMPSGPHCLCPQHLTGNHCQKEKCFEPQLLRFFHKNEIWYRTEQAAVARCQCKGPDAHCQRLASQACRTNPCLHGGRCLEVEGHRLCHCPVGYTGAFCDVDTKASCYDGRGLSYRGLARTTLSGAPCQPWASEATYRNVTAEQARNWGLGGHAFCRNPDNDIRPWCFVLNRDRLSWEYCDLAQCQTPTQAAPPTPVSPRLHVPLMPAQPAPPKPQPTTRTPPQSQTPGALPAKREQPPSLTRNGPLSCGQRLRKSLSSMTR
Experiment: Determination of Human Factor XIIa (hFXIIa) inhibition, fluorogenic substrate IC50 assay
Assay type: biochemical
Details: fluorogenic substrate H-DPro-Phe-Arg-AFC at Km, 25° C., read-out: Human FXIIa IC50
Procedure: Determination of Human Factor XIIa (hFXIIa) inhibition
The Km for the cleavage of the substrate by hFXIIa was determined by standard transformation of the Michaelis-Menten equation, with subsequent inhibition assays performed at substrate Km concentration.

Compound	pIC50
CCN1Cc2cc(N3CCc4c(C(=O)NCC5CC5)nn(-c5cccc(Cl)c5)c4C3=O)ccc2C(C)(C)C1 [Example 1082, 1-(3-chlorophenyl)-N-(cyclopropylmethyl)-6-(2-ethyl-4,4-dimethyl-1,2,3,4-tetrahydroisoquinolin-7-yl)-7-oxo-4,5,6,7-tetrahydro-1H-pyrazolo[3,4-c]pyridine-3-carboxamide]	6.00 to 6.52
CN1CCc2ccc(N3CCc4c(C(=O)NC[C@@H]5COCCO5)nn(-c5cccc(Cl)c5)c4C3=O)cc2C1=O [Example 1249, (R)-N-((1,4-dioxan-2-yl)methyl)-1-(3-chlorophenyl)-6-(2-methyl-1-oxo-1,2,3,4-tetrahydroisoquinolin-7-yl)-7-oxo-4,5,6,7-tetrahydro-1H-pyrazolo[3,4-c]pyridine-3-carboxamide]	6.00 to 6.52
CN1CCc2cc(N3CCc4c(C(=O)NCC5CC5)nn(-c5cccc(Cl)c5)c4C3=O)ccc2C1=O [Example 1190, 1-(3-chlorophenyl)-N-(cyclopropylmethyl)-6-(2-methyl-1-oxo-1,2,3,4-tetrahydroisoquinolin-6-yl)-7-oxo-4,5,6,7-tetrahydro-1H-pyrazolo[3,4-c]pyridine-3-carboxamide]	4.40 to 5.00
O=C(NCC1CC1)c1nn(-c2cccc(Cl)c2)c2c1CCN(c1ccc3c(c1)CN(CCF)CC3)C2=O [Example 1175, 1-(3-chlorophenyl)-N-(cyclopropylmethyl)-6-(2-(2-fluoroethyl)-1,2,3,4-tetrahydroisoquinolin-7-yl)-7-oxo-4,5,6,7-tetrahydro-1H-pyrazolo[3,4-c]pyridine-3-carboxamide]	6.52 to 7.00
O=C(NCC1CC1)c1nn(-c2cccc(Cl)c2)c2c1CCN(c1ccc3c(c1)C(=O)N(CCO)CCC3)C2=O [Example 1294, 1-(3-chlorophenyl)-N-(cyclopropylmethyl)-6-(2-(2-hydroxyethyl)-1-oxo-2,3,4,5-tetrahydro-1H-benzo[c]azepin-8-yl)-7-oxo-4,5,6,7-tetrahydro-1H-pyrazolo[3,4-c]pyridine-3-carboxamide]	6.52 to 7.00
COC1CN(CCO)Cc2cc(N3CCc4c(C(=O)NCC5CC5)nn(-c5cccc(Cl)c5)c4C3=O)ccc21 (centres unmarked) [Example 1191, 1-(3-chlorophenyl)-N-(cyclopropylmethyl)-6-(2-(2-hydroxyethyl)-4-methoxy-1,2,3,4-tetrahydroisoquinolin-7-yl)-7-oxo-4,5,6,7-tetrahydro-1H-pyrazolo[3,4-c]pyridine-3-carboxamide]	6.00 to 6.52
O=C(NCC1CC1)c1nn(-c2cccc(Cl)c2)c2c1CCN(c1cccc(CN3CCOC3=O)c1)C2=O [Example 1316, 1-(3-chlorophenyl)-N-(cyclopropylmethyl)-7-oxo-6-(3-((2-oxooxazolidin-3-yl)methyl)phenyl)-4,5,6,7-tetrahydro-1H-pyrazolo[3,4-c]pyridine-3-carboxamide]	4.40 to 5.00
O=C(NCC1CC1)c1nn(-c2cccc(Cl)c2)c2c1CCN(c1ccc3c(c1)CN(CC1CCOC1)CC3)C2=O (centres unmarked) [Example 1116, 1-(3-chlorophenyl)-N-(cyclopropylmethyl)-7-oxo-6-(2-((tetrahydrofuran-3-yl)methyl)-1,2,3,4-tetrahydroisoquinolin-7-yl)-4,5,6,7-tetrahydro-1H-pyrazolo[3,4-c]pyridine-3-carboxamide]	6.00 to 6.52
CCNC(=O)c1nn(-c2cnc(N)c(Cl)c2)c2c1CCN(c1ccc3c(c1)C(=O)N(C)CC3)C2=O [Example 2031, 1-(6-amino-5-chloropyridin-3-yl)-N-ethyl-6-(2-methyl-1-oxo-1,2,3,4-tetrahydroisoquinolin-7-yl)-7-oxo-4,5,6,7-tetrahydro-1H-pyrazolo[3,4-c]pyridine-3-carboxamide]	< 5.40
CN1C(=O)CCCc2ccc(N3CCc4c(C(=O)NCC5CC5)nn(-c5cccc(Cl)c5)c4C3=O)cc21 [Example 1242, 1-(3-chlorophenyl)-N-(cyclopropylmethyl)-6-(1-methyl-2-oxo-2,3,4,5-tetrahydro-1H-benzo[b]azepin-8-yl)-7-oxo-4,5,6,7-tetrahydro-1H-pyrazolo[3,4-c]pyridine-3-carboxamide]	5.00 to 5.52
CCOC(=O)c1nn(-c2cccc(C)n2)c2c1CCN(c1ccc3c(c1)C(=O)N(C)CC3)C2=O [Example 2023, ethyl 6-(2-methyl-1-oxo-1,2,3,4-tetrahydroisoquinolin-7-yl)-1-(6-methylpyridin-2-yl)-7-oxo-4,5,6,7-tetrahydro-1H-pyrazolo[3,4-c]pyridine-3-carboxylate]	6.00 to 6.52
CN1CCc2ccc(N3CCc4c(C(=O)NCC5CCO5)nn(-c5cccc(Cl)c5)c4C3=O)cc2C1 (centres unmarked) [Example 1045, 1-(3-chlorophenyl)-6-(2-methyl-1,2,3,4-tetrahydroisoquinolin-7-yl)-N-(oxetan-2-ylmethyl)-7-oxo-4,5,6,7-tetrahydro-1H-pyrazolo[3,4-c]pyridine-3-carboxamide]	6.00 to 6.52
Cc1ccc(N2CCc3c(C(=O)NCC4CC4)nn(-c4cccc(Cl)c4)c3C2=O)cc1C(=O)N(C)C [Example 1244, 1-(3-chlorophenyl)-N-(cyclopropylmethyl)-6-(3-(dimethylcarbamoyl)-4-methylphenyl)-7-oxo-4,5,6,7-tetrahydro-1H-pyrazolo[3,4-c]pyridine-3-carboxamide]	5.00 to 5.52
CN(C)C(=O)c1ccnc(N2CCc3c(C(=O)NCC4CC4)nn(-c4cccc(Cl)c4)c3C2=O)c1 [Example 1273, 1-(3-chlorophenyl)-N-(cyclopropylmethyl)-6-(4-(dimethylcarbamoyl)pyridin-2-yl)-7-oxo-4,5,6,7-tetrahydro-1H-pyrazolo[3,4-c]pyridine-3-carboxamide]	5.00 to 5.52
CN1CCc2ccc(N3CCc4c(C(=O)NCC5COC5)nn(-c5cccc(Cl)c5)c4C3=O)cc2C1 [Example 1047, 1-(3-chlorophenyl)-6-(2-methyl-1,2,3,4-tetrahydroisoquinolin-7-yl)-N-(oxetan-3-ylmethyl)-7-oxo-4,5,6,7-tetrahydro-1H-pyrazolo[3,4-c]pyridine-3-carboxamide]	6.00 to 6.52
CN1CCc2ccc(N3CCc4c(C(=O)NCC56COC(CO)(C5)C6)nn(-c5cccc(Cl)c5)c4C3=O)cc2C1 [Example 1050, 1-(3-chlorophenyl)-N-((1-(hydroxymethyl)-2-oxabicyclo[2.1.1]hexan-4-yl)methyl)-6-(2-methyl-1,2,3,4-tetrahydroisoquinolin-7-yl)-7-oxo-4,5,6,7-tetrahydro-1H-pyrazolo[3,4-c]pyridine-3-carboxamide]	6.00 to 6.52
O=C(NCC1CC1)c1nn(-c2cccc(Cl)c2)c2c1CCN(c1ccc3c(c1)CN(CC(F)(F)F)CC3)C2=O [Example 1071, 1-(3-chlorophenyl)-N-(cyclopropylmethyl)-7-oxo-6-(2-(2,2,2-trifluoroethyl)-1,2,3,4-tetrahydroisoquinolin-7-yl)-4,5,6,7-tetrahydro-1H-pyrazolo[3,4-c]pyridine-3-carboxamide]	5.52 to 6.00
CS(=O)(=O)NCCN1CCc2ccc(N3CCc4c(C(=O)NCC5CC5)nn(-c5cccc(Cl)c5)c4C3=O)cc2C1 [Example 1083, 1-(3-chlorophenyl)-N-(cyclopropylmethyl)-6-(2-(2-(methylsulfonamido)ethyl)-1,2,3,4-tetrahydroisoquinolin-7-yl)-7-oxo-4,5,6,7-tetrahydro-1H-pyrazolo[3,4-c]pyridine-3-carboxamide]	6.52 to 7.00
CN(C)C(=O)c1csc(N2CCc3c(C(=O)NCC4CC4)nn(-c4cccc(Cl)c4)c3C2=O)c1 [Example 1295, 1-(3-chlorophenyl)-N-(cyclopropylmethyl)-6-(4-(dimethylcarbamoyl)thiophen-2-yl)-7-oxo-4,5,6,7-tetrahydro-1H-pyrazolo[3,4-c]pyridine-3-carboxamide]	4.40 to 5.00
Cc1cc(CNC(=O)c2nn(-c3cccc(Cl)c3)c3c2CCN(c2ccc4c(c2)CN(C)CC4)C3=O)[nH]n1 [Example 1065, 1-(3-chlorophenyl)-6-(2-methyl-1,2,3,4-tetrahydroisoquinolin-7-yl)-N-((3-methyl-1H-pyrazol-5-yl)methyl)-7-oxo-4,5,6,7-tetrahydro-1H-pyrazolo[3,4-c]pyridine-3-carboxamide]	7.00 to 8.00
COCCCN1CCc2ccc(N3CCc4c(C(=O)NCC5CC5)nn(-c5cccc(Cl)c5)c4C3=O)cc2C1 [Example 1053, 1-(3-chlorophenyl)-N-(cyclopropylmethyl)-6-(2-(3-methoxypropyl)-1,2,3,4-tetrahydroisoquinolin-7-yl)-7-oxo-4,5,6,7-tetrahydro-1H-pyrazolo[3,4-c]pyridine-3-carboxamide]	6.52 to 7.00
CN1CCc2ccc(N3CCc4c(C(=O)NC5COC5)nn(-c5cccc(Cl)c5)c4C3=O)cc2C1 [Example 1041, 1-(3-chlorophenyl)-6-(2-methyl-1,2,3,4-tetrahydroisoquinolin-7-yl)-N-(oxetan-3-yl)-7-oxo-4,5,6,7-tetrahydro-1H-pyrazolo[3,4-c]pyridine-3-carboxamide]	6.00 to 6.52
CN1CCc2ccc(N3CCc4c(C(=O)NC56CC(O)(C5)C6)nn(-c5cccc(Cl)c5)c4C3=O)cc2C1 [Example 1437, 1-(3-chlorophenyl)-N-(3-hydroxybicyclo[1.1.1]pentan-1-yl)-6-(2-methyl-1,2,3,4-tetrahydroisoquinolin-7-yl)-7-oxo-4,5,6,7-tetrahydro-1H-pyrazolo[3,4-c]pyridine-3-carboxamide]	6.52 to 7.00
